Where a name gives a salt, the structure may show the parent alone.
What was measured:
NCI-H3255 = assay: Cytotoxicity against human NCI-H3255 cells assessed as inhibition of cell growth incubated for 48 hrs by MTT assay; format: functional, cell-based; settings: NCI-H3255, 48 h
NCI-H446 = assay: Cytotoxicity against human NCI-H446 cells assessed as inhibition of cell growth incubated for 48 hrs by MTT assay; format: functional, cell-based; settings: NCI-H446, 48 h
A549 = assay: Cytotoxicity against human A549 cells assessed as inhibition of cell growth incubated for 48 hrs by MTT assay; format: functional, cell-based; settings: A549, 48 h
PC-3 [1] = assay: Cytotoxicity against human PC-3 cells assessed as inhibition of cell growth incubated for 48 hrs by MTT assay; format: functional, cell-based; settings: PC-3, 48 h
PC-3 [2] = assay: Induction of apoptosis in human PC-3 cells assessed as late apoptotic cells up to 10 uM measured at 8 hrs by annexinV-FITC staining based flow cytometric analysis (reference value: 4.64 %); format: functional
PC-3 [3] = assay: Induction of apoptosis in human PC-3 cells assessed as viable cells at 5 uM measured after 24 hrs by annexinV-FITC staining based flow cytometric analysis (reference value: 92.9 %); format: functional; settings: read-out: Activity
PC-3 [4] = assay: Induction of apoptosis in human PC-3 cells assessed as increase in ROS levels at measured after 24 hrs by DCFH-DA staining based flow cytometry assay; format: functional, cell-based; settings: dose <= 10.0 µM
PC-3 [5] = assay: Induction of apoptosis in human PC-3 cells assessed as viable cells up to 10 uM measured att 24 hrs by annexinV-FITC staining based flow cytometric analysis (reference value: 91.1 %); format: functional
PC-3 [6] = assay: Induction of apoptosis in human PC-3 cells assessed as viable cells up to 10 uM measured at 8 hrs by annexinV-FITC staining based flow cytometric analysis (reference value: 91.1 %); format: functional
PC-3 [7] = assay: Induction of apoptosis in human PC-3 cells assessed as necrotic cells up to 10 uM measured at 4 hrs by annexinV-FITC staining based flow cytometric analysis (reference value: 3.69 %); format: functional
PC-3 [8] = assay: Induction of apoptosis in human PC-3 cells assessed as necrotic cells at 2.5 uM measured after 24 hrs by annexinV-FITC staining based flow cytometric analysis (reference value: 5.09 %); format: functional
PC-3 [9] = assay: Induction of apoptosis in human PC-3 cells assessed as early apoptotic cells up to 10 uM measured at 12 hrs by annexinV-FITC staining based flow cytometric analysis (reference value: 0.55 %); format: functional
PC-3 [10] = assay: Induction of apoptosis in human PC-3 cells assessed as late apoptotic cells up to 10 uM measured at 12 hrs by annexinV-FITC staining based flow cytometric analysis (reference value: 4.64 %); format: functional
PC-3 [11] = assay: Induction of apoptosis in human PC-3 cells assessed as late apoptotic cells at 2.5 uM measured after 24 hrs by annexinV-FITC staining based flow cytometric analysis (reference value: 1.87 %); format: functional
PC-3 [12] = assay: Induction of apoptosis in human PC-3 cells assessed as viable cells up to 10 uM measured at 4 hrs by annexinV-FITC staining based flow cytometric analysis (reference value: 91.1 %); format: functional
PC-3 [13] = assay: Induction of mitochondrial membrane potential loss in human PC-3 cells at 2 uM measured after 24 hrs by JC-1 dye-based flow cytometric analysis (reference value: 100 %); format: functional
PC-3 [14] = assay: Induction of apoptosis in human PC-3 cells assessed as necrotic cells up to 10 uM measured at 24 hrs by annexinV-FITC staining based flow cytometric analysis (reference value: 3.69 %); format: functional
PC-3 [15] = assay: Induction of apoptosis in human PC-3 cells assessed as viable cells up to 10 uM measured at 2 hrs by annexinV-FITC staining based flow cytometric analysis (reference value: 91.1 %); format: functional
PC-3 [16] = assay: Induction of apoptosis in human PC-3 cells assessed as early apoptotic cells at 10 uM measured after 24 hrs by annexinV-FITC staining based flow cytometric analysis (reference value: 0.12 %); format: functional
PC-3 [17] = assay: Induction of apoptosis in human PC-3 cells assessed as viable cells at 2.5 uM measured after 24 hrs by annexinV-FITC staining based flow cytometric analysis (reference value: 92.9 %); format: functional; settings: read-out: Activity
PC-3 [18] = assay: Induction of apoptosis in human PC-3 cells assessed as late apoptotic cells up to 10 uM measured at 4 hrs by annexinV-FITC staining based flow cytometric analysis (reference value: 4.64 %); format: functional
PC-3 [19] = assay: Induction of apoptosis in human PC-3 cells assessed as necrotic cells at 10 uM measured after 24 hrs by annexinV-FITC staining based flow cytometric analysis (reference value: 5.09 %); format: functional
PC-3 [20] = assay: Induction of apoptosis in human PC-3 cells assessed as late apoptotic cells at 10 uM measured after 24 hrs by annexinV-FITC staining based flow cytometric analysis (reference value: 1.87 %); format: functional
PC-3 [21] = assay: Induction of apoptosis in human PC-3 cells assessed as early apoptotic cells up to 10 uM measured at 4 hrs by annexinV-FITC staining based flow cytometric analysis (reference value: 0.55 %); format: functional
PC-3 [22] = assay: Induction of apoptosis in human PC-3 cells assessed as late apoptotic cells up to 10 uM measured at 24 hrs by annexinV-FITC staining based flow cytometric analysis (reference value: 4.64 %); format: functional
PC-3 [23] = assay: Induction of apoptosis in human PC-3 cells assessed as necrotic cells up to 10 uM measured at 8 hrs by annexinV-FITC staining based flow cytometric analysis (reference value: 3.69 %); format: functional
PC-3 [24] = assay: Induction of apoptosis in human PC-3 cells assessed as early apoptotic cells at 2.5 uM measured after 24 hrs by annexinV-FITC staining based flow cytometric analysis (reference value: 0.12 %); format: functional
PC-3 [25] = assay: Induction of apoptosis in human PC-3 cells assessed as early apoptotic cells up to 10 uM measured at 8 hrs by annexinV-FITC staining based flow cytometric analysis (reference value: 0.55 %); format: functional
PC-3 [26] = assay: Induction of apoptosis in human PC-3 cells assessed as necrotic cells up to 10 uM measured at 2 hrs by annexinV-FITC staining based flow cytometric analysis (reference value: 3.69 %); format: functional
PC-3 [27] = assay: Induction of mitochondrial membrane potential loss in human PC-3 cells at 4 uM measured after 24 hrs by JC-1 dye-based flow cytometric analysis (reference value: 100 %); format: functional
PC-3 [28] = assay: Induction of apoptosis in human PC-3 cells assessed as early apoptotic cells up to 10 uM measured at 2 hrs by annexinV-FITC staining based flow cytometric analysis (reference value: 0.55 %); format: functional
PC-3 [29] = assay: Induction of apoptosis in human PC-3 cells assessed as late apoptotic cells at 5 uM measured after 24 hrs by annexinV-FITC staining based flow cytometric analysis (reference value: 1.87 %); format: functional
PC-3 [30] = assay: Induction of mitochondrial membrane potential loss in human PC-3 cells at 6 uM measured after 24 hrs by JC-1 dye-based flow cytometric analysis (reference value: 100 %); format: functional
PC-3 [31] = assay: Induction of apoptosis in human PC-3 cells assessed as necrotic cells at 5 uM measured after 24 hrs by annexinV-FITC staining based flow cytometric analysis (reference value: 5.09 %); format: functional
PC-3 [32] = assay: Induction of apoptosis in human PC-3 cells assessed as early apoptotic cells at 5 uM measured after 24 hrs by annexinV-FITC staining based flow cytometric analysis (reference value: 0.12 %); format: functional
PC-3 [33] = assay: Induction of apoptosis in human PC-3 cells assessed as necrotic cells up to 10 uM measured at 12 hrs by annexinV-FITC staining based flow cytometric analysis (reference value: 3.69 %); format: functional
PC-3 [34] = assay: Induction of apoptosis in human PC-3 cells assessed as viable cells up to 10 uM measured att 12 hrs by annexinV-FITC staining based flow cytometric analysis (reference value: 91.1 %); format: functional
PC-3 [35] = assay: Induction of apoptosis in human PC-3 cells assessed as early apoptotic cells up to 10 uM measured at 24 hrs by annexinV-FITC staining based flow cytometric analysis (reference value: 0.55 %); format: functional
PC-3 [36] = assay: Induction of apoptosis in human PC-3 cells assessed as viable cells at 10 uM measured after 24 hrs by annexinV-FITC staining based flow cytometric analysis (reference value: 92.9 %); format: functional; settings: read-out: Activity
PC-3 [37] = assay: Induction of apoptosis in human PC-3 cells assessed as late apoptotic cells up to 10 uM measured at 2 hrs by annexinV-FITC staining based flow cytometric analysis (reference value: 4.64 %); format: functional

Work on `C=C(C[C@@H](C)[C@H]1[C@H](O)C[C@@]2(C)[C@@H]3CC[C@H]4C(C)(C)[C@@H](O)CC[C@]4(O)CC3=CC[C@]12C)C(C)C` yielded an IC50 (NCI-H3255) of over 10 µM, an IC50 (NCI-H446) of 9.6 µM and an IC50 (A549) of 8.8 µM. For the same molecule, the IC50 (PC-3 [1]) was 8.6 µM.

`COc1cccc2c1C(=O)c1c(O)c3c(c(O)c1C2=O)C[C@@](O)(C(=O)CO)C[C@@H]3O[C@H]1C[C@H](N)[C@H](O)[C@H](C)O1` [DOXORUBICIN HYDROCHLORIDE] gave an IC50 (NCI-H3255) of 1.5 µM, an IC50 (NCI-H446) of 1.7 µM and an IC50 (A549) of 1.2 µM. It also gave an IC50 (PC-3 [1]) of 0.4 µM.

`C=C(C)C(=O)CC[C@@H](C)[C@H]1[C@H](O)C[C@@]2(C)[C@@H]3CC[C@H]4C(C)(C)[C@@H](O)CC[C@]4(O)CC3=CC[C@]12C` was tested, and the Activity (PC-3 [2]) was 5.96%, the viability at 5 µM (PC-3 [3]) was 91.9% and the Activity (PC-3 [4]) was “Dose-Dependent Effect”. For the same molecule, the Activity (PC-3 [5]) was 83%, the Activity (PC-3 [6]) was 88.8% and the Activity (PC-3 [7]) was 6.67%. It also gave an Activity (PC-3 [8]) of 4.44%, an Activity (PC-3 [9]) of 2.63% and an Activity (PC-3 [10]) of 7.37%. For the same molecule, the Activity (PC-3 [11]) was 2.06%, the Activity (PC-3 [12]) was 87.1% and the Activity (PC-3 [13]) was 85.2%. For the same molecule, the Activity (PC-3 [14]) was 4.25%, the Activity (PC-3 [15]) was 88.4% and the Activity (PC-3 [16]) was 0.78%. It also gave a viability at 2.5 µM (PC-3 [17]) of 93.2%, an Activity (PC-3 [18]) of 5.8% and an Activity (PC-3 [19]) of 12.9%. It also gave an Activity (PC-3 [20]) of 40.3%, an IC50 (NCI-H3255) of 5.7 µM and an Activity (PC-3 [21]) of 0.39%. It also gave an Activity (PC-3 [22]) of 9.45%, an Activity (PC-3 [23]) of 4.5% and an Activity (PC-3 [24]) of 0.29%. It also gave an Activity (PC-3 [25]) of 0.76%, an Activity (PC-3 [26]) of 6.41% and an Activity (PC-3 [27]) of 71.5%. The Activity (PC-3 [28]) was 0.33%, the Activity (PC-3 [29]) was 3.81% and the Activity (PC-3 [30]) was 16.8%. The Activity (PC-3 [31]) was 2.68%, the Activity (PC-3 [32]) was 1.64% and the Activity (PC-3 [33]) was 3.48%. For the same molecule, the Activity (PC-3 [34]) was 86.5%, the Activity (PC-3 [35]) was 3.3% and the IC50 (NCI-H446) was 5 µM. The IC50 (A549) was 4.4 µM, the IC50 (PC-3 [1]) was 4.2 µM and the viability at 10 µM (PC-3 [36]) was 45%. It also gave an Activity (PC-3 [37]) of 4.82%.

Molecule `CC(C)=CCC[C@@H](C)[C@H]1[C@H](O)C[C@@]2(C)[C@@H]3CC[C@H]4C(C)(C)[C@@H](O)CC[C@]4(O)CC3=CC[C@]12C` has an IC50 (NCI-H3255) of 9.4 µM, an IC50 (NCI-H446) of 7.5 µM and an IC50 (A549) of 7 µM. For the same molecule, the IC50 (PC-3 [1]) was 6.5 µM.

From ChEMBL document CHEMBL5226353, “Cytotoxic Activities of 9,10-seco-Cycloartane-Type Triterpenoids from the Chinese Liverwort Lepidozia reptans” (J Nat Prod, 2021)
